Patent publication US20070231403A1, “Natural composite preservatives” (priority 2006, published 2007)

Experiment: DPPH radical scavenging (antioxidant) assay
Type: biochemical
Conditions: vitamin C 1 mM
Protocol: The antioxidant activity of the natural composite preservatives was analyzed with DPPH (1,1-diphenyl-2-picrylhydrazyl). DPPH is a color radical generally used in determining radical scavenging capacity. Test samples were dissolved in 4 ml of distilled water or a solvent and mixed with 1 ml of 100 μM DPPH before incubation at room temperature for 30 min. Absorbance at 517 nm was read to calculate the amount of remaining DPPH (blank: distilled water or solvent only, control: DPPH alone in distilled water or solvent). Radical Scavenging Activity (RSA) was expressed as percentages of the test groups relative to the control, as calculated by the following equation 1.

## O=C1O[C@H]([C@@H](O)CO)C(O)=C1O [vitamin C]
  RSA: 35%
